Assays:
[1] = target: Cryptosporidium cyanide insensitive oxidase (AOX), recombinant protein (cCpAOX) (Cryptosporidium parvum, UniProt Q761U6); experiment: CpAOX enzyme inhibition; format: biochemical
Excerpt: Cryptosporidium has found to have cyanide insensitive oxidase (AOX), and its inhibitory activity was observed using its recombinant protein (cCpAOX) produced in E. coli.

[2] = target: T1, recombinant Trypanosome AOX (TAO) enzyme (Trypanosoma brucei brucei, UniProt Q26710); experiment: TAO enzyme inhibition (quinol oxidase activity, ubiquinol-1 substrate); format: biochemical, T. brucei brucei; settings: TAO-expressing E. coli membrane fraction, 25° C., ubiquinol-1, absorbance at 278 nm
T1 construct: made in house; host or cells: Escherichia coli (membrane fraction)
Experimental: Escherichia coli membrane fractions that express TAO by a plasmid harboring TAO cDNA cloned from T. brucei brucei (Fukai, Comparative Biochemistry & Physiology, 124, 141-148, 1999) were used as a recombinant Trypanosome AOX (TAO) enzyme. 50 mM Tris-HCl (pH 7.5), TAO-expressing membrane fraction (0.35 ng), and […] of an inhibitor were mixed in a 1 mL cuvette, and the mixture was incubated at 25° C. for 4 minutes. Ubiquinol-1 as a substrate was then added to the mixture to initiated the reaction, and change in absorbance at 278 nm was monitored (Shimadzu UV-3000, molar absorption coefficient ε=15 cm^−1 mM^−1).

T. b. rhodesiense IL1501 = experiment: Antiprotozoal effect, MIC measurement in HMI-9 culture; format: cell-based; settings: Trypanosoma brucei, RHODESIENSE, 24 h, bloodstream forms, 18 + 6 hours culture
Experimental: T. b. rhodesiense IL1501, the human infectious protozoan that causes acute symptoms, was used as a Trypanosomatid protozoan. The bloodstream forms of protozoan can be cultured in a HMI-9 culture medium (Hirumi, 1989). The protozoan was always cultured at a temperature of 37° C. in the presence of 5% CO2.
In a microtiter plate (96-well, FALCON 3072), HMI-9 culture medium and HMI-9 culture medium plus glycerol added to make a final concentration of 8.33 mM are separately prepared. 89 μL of the preparation are put into only the first well, and a 60 μL aliquot of each the other wells. 1 μL of a solution of AF or a AF derivative dissolved in DMSO was added to the first well, and was then suspended. A 30 μL aliquot of the suspension was then collected, was transferred to the second well, and was suspended. These operations were repeated in this order to prepare a three-fold dilution series of drug. A 40 μL aliquot of a protozoan culture was added to each well to make a final concentration of 5×10^4 cells/well (a final concentration of glycerol of 5 mM) followed by 18-hours culturing under conditions of 37° C. and 5% CO2. (For EC50 measurement, a 10 μL aliquot of Alamar Blue was added to each well), culturing was carried out under the same conditions for 6 more hours, surviving protozoans were visually observed with a microscope. The concentration at which no motile surviving protozoan was observed was defined as MIC.

[3] = Glycerol (+), final concentration of glycerol of 5 mM

Sequence of Cryptosporidium cyanide insensitive oxidase (AOX), recombinant protein (cCpAOX) (Q761U6 entry or part of it): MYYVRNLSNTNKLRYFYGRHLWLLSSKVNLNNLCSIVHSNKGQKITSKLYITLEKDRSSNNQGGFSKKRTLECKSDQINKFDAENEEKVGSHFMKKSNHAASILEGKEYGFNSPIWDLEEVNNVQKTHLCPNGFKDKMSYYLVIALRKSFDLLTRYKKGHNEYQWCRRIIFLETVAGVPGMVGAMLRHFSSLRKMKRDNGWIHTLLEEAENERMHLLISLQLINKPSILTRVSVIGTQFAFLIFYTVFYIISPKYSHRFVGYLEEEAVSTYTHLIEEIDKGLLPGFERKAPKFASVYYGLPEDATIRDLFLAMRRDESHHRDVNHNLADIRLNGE
T1 sequence (Q26710 whole entry): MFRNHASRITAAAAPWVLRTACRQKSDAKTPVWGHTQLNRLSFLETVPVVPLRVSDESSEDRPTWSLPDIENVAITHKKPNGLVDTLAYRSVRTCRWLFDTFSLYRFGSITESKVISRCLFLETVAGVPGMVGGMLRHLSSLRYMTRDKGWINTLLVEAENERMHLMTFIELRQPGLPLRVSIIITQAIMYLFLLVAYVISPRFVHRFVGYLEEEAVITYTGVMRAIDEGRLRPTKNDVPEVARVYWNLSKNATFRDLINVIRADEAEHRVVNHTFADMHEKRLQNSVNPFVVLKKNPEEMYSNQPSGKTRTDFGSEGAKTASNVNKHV

| SMILES | melting point | IC50 [1] | IC50 [2] | MIC (T. b. rhodesiense IL1501; [3]) | MIC (T. b. rhodesiense IL1501; Glycerol (−)) |
| --- | --- | --- | --- | --- | --- |
| CC(=O)OCCCCCCCCc1c(O)c(Cl)c(C)c(C=O)c1O [Compound 215-11-OAc, 8-(3-Chloro-5-formyl-2,6-dihydroxy-4-methylphenyl)octyl acetate] | 68 °C | 2.7 nM | 0.6 nM | 7.7 nM | 68 nM |
| CCCCCC#CCc1c(O)c(Cl)c(C)c(C=O)c1O [Compound 284-8, 3-Chloro-4,6-dihydroxy-5-(2-octynyl)-2-methylbenzaldehyde] | 135 to 136 °C | 1.9 nM | 0.3 nM | 9.6 nM | 92 nM |
| Cc1c(Cl)c(O)c(CCCCCCCC(=O)Oc2c3ccccc3cc3ccccc23)c(O)c1C=O [Compound 215-18-Anthra, 9-Anthryl 8-(3-chloro-5-formyl-2,6-dihydroxy-4-methylphenyl)octanate] | – | 2.6 nM | 0.5 nM | 3.8 nM | 6.6 nM |
| CCC(=O)OCCCCCCCCCc1c(O)c(Cl)c(C)c(C=O)c1O [Compound 215-13-OCOEt, 9-(3-Chloro-5-formyl-2,6-dihydroxy-4-methylphenyl)nonyl propionate] | 69 to 70 °C | 2.1 nM | 0.2 nM | 7.1 nM | 125 nM |
| Cc1c(Cl)c(O)c(CCCCCCCCCCCC(=O)OC(C)C)c(O)c1C=O [Compound 215-15-COOiPr, Isopropyl 12-(3-chloro-5-formyl-2,6-dihydroxy-4-methylphenyl)dodecanoate] | 82 to 83 °C | 2.5 nM | 0.32 nM | – | – |
| COC(=O)CCCCCCCCCc1c(O)c(Cl)c(C)c(C=O)c1O [Compound 215-12-COOMe, Methyl 10-(3-chloro-5-formyl-2,6-dihydroxy-4-methylphenyl)decanoate] | 87 to 88 °C | 1.5 nM | 0.25 nM | 5.7 nM | 38 nM |
| CC(=O)/C(C)=C/CC/C(C)=C/Cc1c(O)c(Cl)c(C)c(C=O)c1O [Compound 276-9] | 119 to 120 °C | 2.1 nM | 1.2 nM | 0.53 nM | 13 nM |
| Cc1c(Cl)c(O)c(CCC(C)CCCCOC(=O)C(C)(C)C)c(O)c1C=O (centres unmarked) [Compound 265-11-OPiv, 7-(3-Chloro-2,6-dihydroxy-5-formyl-4-methylphenyl)-5-methylheptyl pivalate] | – | 2.3 nM | 0.36 nM | – | – |
| CC(/C=C/C(=O)C(C)(C)C)=C\CC/C(C)=C/Cc1c(O)c(Cl)c(C)c(C=O)c1O [Compound 273-12, 3-Chloro-4,6-dihydroxy-2-methyl-5-[(2E,6E,8E)-3,7,11,11-tetramethyl-10-oxo-2,6,8-dodecatrienyl]benzaldehyde] | – | 2.2 nM | 0.23 nM | 1.9 nM | 3.7 nM |
| CCC(=O)OCCCCCCCCc1c(O)c(Cl)c(C)c(C=O)c1O [Compound 215-12-OCOEt, 8-(3-Chloro-5-formyl-2,6-dihydroxy-4-methylphenyl)octyl propionate] | 63 to 64 °C | 2.2 nM | 0.29 nM | – | – |
| Cc1c(Cl)c(O)c(CCCCCCC(C)C)c(O)c1C=O [Compound 279-8, 3-Chloro-4,6-dihydroxy-2-methyl-5-(7-methyloctyl)benzaldehyde] | 93 to 94 °C | 2.1 nM | 0.22 nM | 7.3 nM | 12 nM |
| Cc1c(Cl)c(O)c(CCCCCCCCCC(=O)OC(C)(C)C)c(O)c1C=O [Compound 215-13-COOBu, tert-Butyl 10-(3-chloro-2,6-dihydroxy-5-formyl-4-methylphenyl)decanoate] | – | 0.92 nM | 0.25 nM | 1.2 nM | 16 nM |
| COC(CC(=O)C(C)(C)C)/C(C)=C/CC/C(C)=C/Cc1c(O)c(Cl)c(C)c(C=O)c1O (centres unmarked) [Compound 271-12] | – | 1.6 nM | 0.22 nM | 0.0023 nM | 0.056 nM |
| Cc1c(Cl)c(O)c(CCCCCCCCCC(=O)O)c(O)c1C=O [Compound 215-11-COOH, 10-(3-Chloro-5-formyl-2,6-dihydroxy-4-methylphenyl)decanoic acid] | 154 to 156 °C | 2.1 nM | 1.5 nM | 1500 nM | 4000 nM |
| CCOC(=O)CCCCCCCCCCCc1c(O)c(Cl)c(C)c(C=O)c1O [Compound 215-15-COOEt, Ethyl 12-(3-chloro-5-formyl-2,6-dihydroxy-4-methylphenyl)dodecanoate] | – | 1.8 nM | 0.3 nM | – | – |
| Cc1c(Cl)c(O)c(CCCCCCCCCC(=O)OC(C)C)c(O)c1C=O [Compound 215-13-COOiPr, Isopropyl 10-(3-chloro-2,6-dihydroxy-5-formyl-4-methylphenyl)decanoate] | 49 °C | 2.2 nM | 0.43 nM | 0.061 nM | 1.7 nM |
| Cc1c(Cl)c(O)c(CCCCCCCOC(=O)C(C)(C)C)c(O)c1C=O [Compound 215-11-OPiv, 7-(3-Chloro-5-formyl-2,6-dihydroxy-4-methylphenyl)heptyl pivalate] | 63 to 64 °C | 1.4 nM | 0.25 nM | 0.094 nM | 0.88 nM |
| Cc1c(Cl)c(O)c(/C=C/CCCCCCCOC(=O)C(C)(C)C)c(O)c1C=O [Compound 200-13-OPiv, (E)-9-(3-Chloro-5-formyl-2,6-dihydroxy-4-methylphenyl)-8-nonenyl pivalate] | 69 to 70 °C | 2.2 nM | 0.32 nM | – | – |
| Cc1c(Cl)c(O)c(C/C=C/CCCCCOC(=O)C(C)(C)C)c(O)c1C=O [Compound 206-12-OPiv, (E)-8-(3-Chloro-5-formyl-2,6-dihydroxy-4-methylphenyl)-6-octenyl pivalate] | – | 2.1 nM | 0.27 nM | 0.006 nM | 0.024 nM |
| CC(C)=CCC/C=C/Cc1c(O)c(Cl)c(C)c(C=O)c1O [Compound 278-8, (E)-3-Chloro-4,6-dihydroxy-2-methyl-5-(7-methyl-2,6-octadienyl)benzaldehyde] | – | 1.2 nM | 0.25 nM | 7.4 nM | 14 nM |
| COC(=O)/C(C)=C/CC/C(C)=C/Cc1c(O)c(Cl)c(C)c(C=O)c1O [Compound 275-10-COOMe, Methyl (2E,6E)-8-(3-Chloro-5-formyl-2,6-dihydroxy-4-methyl)phenyl-2,6-dimethyl-2,6-octadienate] | – | 1.2 nM | 0.38 nM | 1.1 nM | 8.7 nM |
| CCCCC/C(C)=C\Cc1c(O)c(Cl)c(C)c(C=O)c1O [Compound 264-8-z, (Z)-3-Chloro-4,6-dihydroxy-2-methyl-5-(3-methyl-2-octenyl)benzaldehyde] | 157 to 158 °C | 1.4 nM | 0.18 nM | 0.17 nM | 0.25 nM |
| Cc1c(Cl)c(O)c(CCCCCCCCCC(=O)OCC2COC(C)(C)O2)c(O)c1C=O (centres unmarked) [Compound 502-16-G, 2,2-Dimethyl-1,3-dioxolanee-4-methyl 10-(3-chloro-5-formyl-2,6-dihydroxy-4-methylphenyl)decanoate] | 55 to 56 °C | 2.3 nM | 0.3 nM | 1.2 nM | 12 nM |
| Cc1c(Cl)c(O)c(CCCCCCCCOC(=O)C(C)(C)C)c(O)c1C=O [Compound 215-12-OPiv, 8-(3-Chloro-5-formyl-2,6-dihydroxy-4-methylphenyl)octyl pivalate] | 70 to 71 °C | 2.7 nM | 0.32 nM | 0.49 nM | 1.9 nM |
